# From PubChem BioAssay AID256 (DTP/NCI, 2004)
# Several values for one entry are separate records, joined by “and”; a condition that tells them apart may be missing. Equal entries are not always repeated. Inconclusive results and toxic doses are left out. Residues, ends and D or L forms follow the SMILES beside them. *: point of attachment. Trt = c1ccc(C(c2ccccc2)(c2ccccc2)*)cc1; Boc = CC(C)(C)OC(=O)*
# System: CD2F1 mice, L1210 leukemia ip, survival T/C
# Test: NCI In Vivo Anticancer Drug Screen. Data for tumor model L1210 Leukemia (intraperitoneal) in CD2F1 (CDF1) mice
# Settings: higher = longer survival
# Method in brief: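 Read-out first: treated-group measurement over vehicle-control measurement, expressed as a ratio. Animals bore a transplanted tumor line and were dosed with compound or vehicle.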
# [1] = endpoint: mean survival time, dose: 100.0 mg/kg/injection, schedule: Q04DX003 (ip), vehicle: saline with Tween-80
# [2] = endpoint: mean survival time, dose: 200.0 mg/kg/injection, schedule: Q04DX003 (ip), vehicle: saline with Tween-80
# [3] = endpoint: mean survival time, dose: 400.0 mg/kg/injection, schedule: Q04DX003 (ip), vehicle: saline with Tween-80
# [4] = endpoint: mean survival time, dose: 100.0 mg/kg/injection, schedule: Q04DX002 (ip), vehicle: saline with Tween-80
# [5] = endpoint: mean survival time, dose: 200.0 mg/kg/injection, schedule: Q04DX002 (ip), vehicle: saline with Tween-80
# [6] = endpoint: mean survival time, dose: 400.0 mg/kg/injection, schedule: Q04DX002 (ip), vehicle: saline with Tween-80
# [7] = endpoint: mean survival time, dose: 100.0 mg/kg/injection, schedule: Q04DX003 (ip), vehicle: saline
# [8] = endpoint: mean survival time, dose: 200.0 mg/kg/injection, schedule: Q04DX003 (ip), vehicle: saline
# [9] = endpoint: mean survival time, dose: 400.0 mg/kg/injection, schedule: Q04DX003 (ip), vehicle: saline
# [10] = endpoint: mean survival time, dose: 50.0 mg/kg/injection, schedule: Q04DX002 (ip), vehicle: saline with Tween-80
# [11] = endpoint: mean survival time, dose: 100.0 mg/kg/injection, schedule: Q01DX009 (ip), vehicle: saline with Tween-80
# [12] = endpoint: mean survival time, dose: 200.0 mg/kg/injection, schedule: Q01DX009 (ip), vehicle: saline with Tween-80
# [13] = endpoint: mean survival time, dose: 400.0 mg/kg/injection, schedule: Q01DX009 (ip), vehicle: saline with Tween-80
# [14] = endpoint: mean survival time, dose: 50.0 mg/kg/injection, schedule: Q04DX003 (ip), vehicle: saline
# [15] = endpoint: mean survival time, dose: 12.5 mg/kg/injection, schedule: Q04DX003 (ip), vehicle: saline
# [16] = endpoint: mean survival time, dose: 25.0 mg/kg/injection, schedule: Q04DX003 (ip), vehicle: saline
# [17] = endpoint: mean survival time, dose: 100.0 mg/kg/injection, schedule: Q04DX003 (ip), vehicle: saline sonified
# [18] = endpoint: mean survival time, dose: 25.0 mg/kg/injection, schedule: Q01DX009 (ip), vehicle: saline with Tween-80
# [19] = endpoint: mean survival time, dose: 50.0 mg/kg/injection, schedule: Q01DX009 (ip), vehicle: saline with Tween-80
compound,measurement,setting,value
COc1cc2c(cc1OC)-c1cc(C)c3cc(OC)c(OC)cc3[n+]1CC2,T/C,"endpoint: mean survival time, dose: 25.0 mg/kg/injection, schedule: Q01DX009 (ip), vehicle: other",109 % of control
same,T/C,"endpoint: mean survival time, dose: 50.0 mg/kg/injection, schedule: Q01DX009 (ip), vehicle: other",115 % of control
same,T/C,"endpoint: mean survival time, dose: 100.0 mg/kg/injection, schedule: Q01DX009 (ip), vehicle: other",109 % of control
C[P+](c1ccc(Cl)cc1)(c1ccc(Cl)cc1)c1ccc(Cl)cc1,T/C,"endpoint: mean survival time, dose: 6.25 mg/kg/injection, schedule: Q01DX009 (ip), vehicle: saline",119 % of control
same,T/C,"endpoint: mean survival time, dose: 12.5 mg/kg/injection, schedule: Q01DX009 (ip), vehicle: saline",107 % of control
same,T/C,"endpoint: mean survival time, dose: 25.0 mg/kg/injection, schedule: Q01DX009 (ip), vehicle: saline",109 % of control
Cc1cc(N)c(C)c([N+](=O)[O-])c1,T/C,[1],103 % of control
same,T/C,[2],101 % of control
same,T/C,[3],92 % of control
CCCCCCCCCCCCCCCC(=O)N(CCCN)C(C)(C)CCC(C)(C)N(CCCN)C(=O)CCCCCCCCCCCCCCC,T/C,"endpoint: mean survival time, dose: 1.56 mg/kg/injection, schedule: Q01DX009 (ip), vehicle: water",106 % of control
same,T/C,"endpoint: mean survival time, dose: 3.13 mg/kg/injection, schedule: Q01DX009 (ip), vehicle: water",98 % of control
same,T/C,"endpoint: mean survival time, dose: 6.25 mg/kg/injection, schedule: Q01DX009 (ip), vehicle: water",104 % of control
same,T/C,"endpoint: mean survival time, dose: 12.5 mg/kg/injection, schedule: Q01DX009 (ip), vehicle: water",102 % of control
same,T/C,"endpoint: mean survival time, dose: 25.0 mg/kg/injection, schedule: Q01DX009 (ip), vehicle: water",89 % of control and 95 % of control
CNC(=S)/N=c1/scc(C)n1C,T/C,[4],91 % of control
same,T/C,[5],91 % of control
same,T/C,[6],111 % of control
O=C1C=CC(=O)N1Cc1ccco1,T/C,[7],102 % of control
same,T/C,[8],95 % of control
same,T/C,[9],90 % of control
Cc1ccc(C23CC4CC(CC(C4)C2)C3)cc1,T/C,"endpoint: mean survival time, dose: 12.5 mg/kg/injection, schedule: Q04DX002 (ip), vehicle: saline with Tween-80",101 % of control
same,T/C,"endpoint: mean survival time, dose: 25.0 mg/kg/injection, schedule: Q04DX002 (ip), vehicle: saline with Tween-80",93 % of control
same,T/C,[10],96 % of control
CC(C)C(=O)OCC(C)(C)COC(=O)C(C)C,T/C,[7],87 % of control
same,T/C,[8],87 % of control
same,T/C,[9],94 % of control
CCc1ccc(C(=O)CCCCl)cc1,T/C,[11],104 % of control
same,T/C,[12],100 % of control
same,T/C,[13],100 % of control
CCOC(CCCO)OCC,T/C,[4],103 % of control
same,T/C,[5],100 % of control
same,T/C,[6],103 % of control
COc1ccc(C(=O)/C=N/O)cc1,T/C,"endpoint: mean survival time, dose: 25.0 mg/kg/injection, schedule: Q04DX003 (ip), vehicle: saline with Tween-80",100 % of control
same,T/C,"endpoint: mean survival time, dose: 50.0 mg/kg/injection, schedule: Q04DX003 (ip), vehicle: saline with Tween-80",100 % of control
same,T/C,[1],95 % of control and 98 % of control
[I-].[Ni+2].[O-]/N=C/c1ccccn1.[O-]/N=C/c1ccccn1.[O-]/N=C/c1ccccn1,T/C,"endpoint: mean survival time, dose: 100.0 mg/kg/injection, schedule: Q01DX001 (ip), vehicle: saline",106 % of control
O=[N+]([O-])c1ccc2nc(CC(O)(C(F)(F)F)C(F)(F)F)ccc2c1,T/C,[11],112 % of control
same,T/C,[1],102 % of control
same,T/C,[12],110 % of control
same,T/C,[2],97 % of control
same,T/C,[13],101 % of control
same,T/C,[3],113 % of control
[Cl][Pt+2]([Cl])([Cl])[Cl].[NH-]CC1(C[NH-])CCCC1,T/C,"endpoint: median survival time, dose: 3.12 mg/kg/injection, schedule: Q04DX003 (ip), vehicle: saline",171 % of control and 174 % of control
same,T/C,"endpoint: median survival time, dose: 6.25 mg/kg/injection, schedule: Q04DX003 (ip), vehicle: saline",174 % of control and 217 % of control
same,T/C,"endpoint: median survival time, dose: 12.5 mg/kg/injection, schedule: Q04DX003 (ip), vehicle: saline",280 % of control and 109 % of control
same,T/C,"endpoint: median survival time, dose: 25.0 mg/kg/injection, schedule: Q04DX003 (ip), vehicle: saline",174 % of control
COCCOCCN1CCN(CCCN2c3ccccc3Sc3ccc(C(F)(F)F)cc32)CC1,T/C,"endpoint: mean survival time, dose: 37.5 mg/kg/injection, schedule: Q04DX003 (ip), vehicle: saline",113 % of control
same,T/C,[14],121 % of control
COC(=O)/C=C/C(=O)NC(N)=O,T/C,"endpoint: mean survival time, dose: 6.25 mg/kg/injection, schedule: Q04DX003 (ip), vehicle: saline",91 % of control
same,T/C,[15],113 % of control
same,T/C,[16],100 % of control
CCC(C)C(NC(=O)OCc1ccccc1)C(=O)ON1C(=O)CCC1=O (centres undefined),T/C,[17],95 % of control
same,T/C,"endpoint: mean survival time, dose: 200.0 mg/kg/injection, schedule: Q04DX003 (ip), vehicle: saline sonified",90 % of control
same,T/C,"endpoint: mean survival time, dose: 400.0 mg/kg/injection, schedule: Q04DX003 (ip), vehicle: saline sonified",100 % of control
Nc1nc(Cl)c2nnn(C3CC(O)C(CO)C3)c2n1 (centres undefined),T/C,"endpoint: mean survival time, dose: 6.25 mg/kg/injection, schedule: Q01DX009 (ip), vehicle: Klucel (hydroxypropylcellulose) (HPC)",117 % of control
same,T/C,"endpoint: mean survival time, dose: 12.5 mg/kg/injection, schedule: Q01DX009 (ip), vehicle: Klucel (hydroxypropylcellulose) (HPC)",106 % of control
same,T/C,"endpoint: mean survival time, dose: 25.0 mg/kg/injection, schedule: Q01DX009 (ip), vehicle: Klucel (hydroxypropylcellulose) (HPC)",117 % of control
COC(=O)c1cc(Br)c(I)c([N+](=O)[O-])c1,T/C,[11],102 % of control
same,T/C,[1],95 % of control
same,T/C,[12],108 % of control
same,T/C,[2],106 % of control
same,T/C,[13],105 % of control
same,T/C,[3],97 % of control
CCOC(=O)/C(C#N)=C(\C)c1cccc(C)c1,T/C,[18],102 % of control
same,T/C,[19],98 % of control
same,T/C,[11],103 % of control
same,T/C,[1],105 % of control
C[N+]1(CCC(c2ccccc2)c2ccccc2)CCCCC1,T/C,[15],96 % of control
same,T/C,[16],104 % of control
same,T/C,[14],102 % of control
OC1CCCCC1O (centres undefined),T/C,[1],101 % of control
same,T/C,[2],100 % of control
same,T/C,[3],103 % of control
O=[N+]([O-])c1[nH]c(Br)nc1Br,T/C,[1],95 % of control
same,T/C,[2],100 % of control
COc1cccc(C(=O)C=C(C(F)(F)F)C(F)(F)F)c1,T/C,"endpoint: mean survival time, dose: 12.5 mg/kg/injection, schedule: Q01DX009 (ip), vehicle: saline with Tween-80",104 % of control
same,T/C,[18],109 % of control
CN(Cc1cnc2nc(N[Si](C)(C)C)nc(N[Si](C)(C)C)c2n1)c1ccc(C(=O)NC(CCC(=O)O[Si](C)(C)C)C(=O)O[Si](C)(C)C)cc1 (centres undefined),T/C,"endpoint: mean survival time, dose: 1.25 mg/kg/injection, schedule: Q01DX009 (ip), vehicle: saline",159 % of control
same,T/C,"endpoint: mean survival time, dose: 1.9 mg/kg/injection, schedule: Q04DX003 (ip), vehicle: saline",117 % of control
same,T/C,"endpoint: mean survival time, dose: 2.5 mg/kg/injection, schedule: Q01DX009 (ip), vehicle: saline",172 % of control
same,T/C,"endpoint: mean survival time, dose: 7.5 mg/kg/injection, schedule: Q04DX003 (ip), vehicle: saline",159 % of control
same,T/C,"endpoint: mean survival time, dose: 15.0 mg/kg/injection, schedule: Q04DX003 (ip), vehicle: saline",178 % of control
same,T/C,"endpoint: mean survival time, dose: 20.0 mg/kg/injection, schedule: Q01DX009 (ip), vehicle: saline",103 % of control
same,T/C,"endpoint: mean survival time, dose: 30.0 mg/kg/injection, schedule: Q04DX003 (ip), vehicle: saline",193 % of control
same,T/C,"endpoint: mean survival time, dose: 60.0 mg/kg/injection, schedule: Q04DX003 (ip), vehicle: saline",155 % of control
same,T/C,"endpoint: mean survival time, dose: 120.0 mg/kg/injection, schedule: Q04DX003 (ip), vehicle: saline",117 % of control
N=C(N)c1ccc(Nc2ccc(-c3cc4ccc(C(=N)N)cc4[nH]3)cc2)cc1,T/C,"endpoint: median survival time, dose: 3.75 mg/kg/injection, schedule: Q01DX005 (ip), vehicle: saline",326 % of control
same,T/C,"endpoint: median survival time, dose: 4.5 mg/kg/injection, schedule: Q01DX005 (ip), vehicle: saline",168 % of control
same,T/C,"endpoint: median survival time, dose: 7.5 mg/kg/injection, schedule: Q01DX005 (ip), vehicle: saline",182 % of control and 271 % of control
same,T/C,"endpoint: median survival time, dose: 12.49 mg/kg/injection, schedule: Q01DX005 (ip), vehicle: saline",150 % of control
same,T/C,"endpoint: median survival time, dose: 20.83 mg/kg/injection, schedule: Q01DX005 (ip), vehicle: saline",101 % of control
CCCCOC(=O)c1ccccc1,T/C,[11],102 % of control
same,T/C,[12],104 % of control
CC(C)(C[P+](C)(c1ccccc1)c1ccccc1)c1ccccc1,T/C,[10],98 % of control
same,T/C,[4],102 % of control
CC(C)(C)OC(=O)NCCCCC(NC(=O)CNC(=O)C(CSC(c1ccccc1)(c1ccccc1)c1ccccc1)NC(=O)OC(C)(C)C)C(=O)O (centres undefined) (Boc-Cys(Trt)-Gly-Lys(Boc)-OH; configuration not given here),T/C,[17],86 % of control
C=CCOCC(O)CNc1ccccc1 (centres undefined),T/C,[19],101 % of control
same,T/C,[11],101 % of control
same,T/C,[12],96 % of control
